{"source": "patent US20040014734A1", "about": "“Farnesoid X-activated receptor agonists” (priority 2002, published 2004)"}
{"molecular_target": "T1, FXR (Rattus norvegicus, UniProt Q62735)", "T1 construct": "expressed in transfected cells; host or cells: Human embryonic kidney 293 cells", "T1 sequence (Q62735 whole entry)": "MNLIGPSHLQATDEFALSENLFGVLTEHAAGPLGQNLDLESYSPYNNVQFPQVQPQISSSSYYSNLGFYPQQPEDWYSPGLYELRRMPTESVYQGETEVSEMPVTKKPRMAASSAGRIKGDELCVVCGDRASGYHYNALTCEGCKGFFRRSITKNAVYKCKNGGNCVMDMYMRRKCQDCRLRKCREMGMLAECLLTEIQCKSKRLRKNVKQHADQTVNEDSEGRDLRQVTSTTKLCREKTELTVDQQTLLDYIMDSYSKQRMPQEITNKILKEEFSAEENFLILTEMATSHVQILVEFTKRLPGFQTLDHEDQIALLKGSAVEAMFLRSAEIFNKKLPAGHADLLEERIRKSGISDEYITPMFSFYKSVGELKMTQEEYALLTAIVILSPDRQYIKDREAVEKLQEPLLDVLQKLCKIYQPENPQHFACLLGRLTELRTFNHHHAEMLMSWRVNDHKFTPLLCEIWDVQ", "T1 sequence (P28702 whole entry partner)": "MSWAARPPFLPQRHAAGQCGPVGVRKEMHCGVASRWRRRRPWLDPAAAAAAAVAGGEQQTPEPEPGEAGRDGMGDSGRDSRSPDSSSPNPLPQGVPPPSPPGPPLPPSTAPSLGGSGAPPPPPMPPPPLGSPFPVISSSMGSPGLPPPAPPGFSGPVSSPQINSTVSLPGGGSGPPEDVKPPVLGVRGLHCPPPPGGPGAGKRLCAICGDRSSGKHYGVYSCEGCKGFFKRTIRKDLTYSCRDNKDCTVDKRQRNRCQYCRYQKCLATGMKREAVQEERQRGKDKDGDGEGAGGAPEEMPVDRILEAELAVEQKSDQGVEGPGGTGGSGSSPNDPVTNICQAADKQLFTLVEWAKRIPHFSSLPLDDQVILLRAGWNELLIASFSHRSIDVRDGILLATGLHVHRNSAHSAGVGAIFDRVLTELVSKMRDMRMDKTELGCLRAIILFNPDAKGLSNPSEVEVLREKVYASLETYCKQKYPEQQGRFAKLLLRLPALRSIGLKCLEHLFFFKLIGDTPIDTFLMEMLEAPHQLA", "T1 sequence (Q15596 whole entry partner)": "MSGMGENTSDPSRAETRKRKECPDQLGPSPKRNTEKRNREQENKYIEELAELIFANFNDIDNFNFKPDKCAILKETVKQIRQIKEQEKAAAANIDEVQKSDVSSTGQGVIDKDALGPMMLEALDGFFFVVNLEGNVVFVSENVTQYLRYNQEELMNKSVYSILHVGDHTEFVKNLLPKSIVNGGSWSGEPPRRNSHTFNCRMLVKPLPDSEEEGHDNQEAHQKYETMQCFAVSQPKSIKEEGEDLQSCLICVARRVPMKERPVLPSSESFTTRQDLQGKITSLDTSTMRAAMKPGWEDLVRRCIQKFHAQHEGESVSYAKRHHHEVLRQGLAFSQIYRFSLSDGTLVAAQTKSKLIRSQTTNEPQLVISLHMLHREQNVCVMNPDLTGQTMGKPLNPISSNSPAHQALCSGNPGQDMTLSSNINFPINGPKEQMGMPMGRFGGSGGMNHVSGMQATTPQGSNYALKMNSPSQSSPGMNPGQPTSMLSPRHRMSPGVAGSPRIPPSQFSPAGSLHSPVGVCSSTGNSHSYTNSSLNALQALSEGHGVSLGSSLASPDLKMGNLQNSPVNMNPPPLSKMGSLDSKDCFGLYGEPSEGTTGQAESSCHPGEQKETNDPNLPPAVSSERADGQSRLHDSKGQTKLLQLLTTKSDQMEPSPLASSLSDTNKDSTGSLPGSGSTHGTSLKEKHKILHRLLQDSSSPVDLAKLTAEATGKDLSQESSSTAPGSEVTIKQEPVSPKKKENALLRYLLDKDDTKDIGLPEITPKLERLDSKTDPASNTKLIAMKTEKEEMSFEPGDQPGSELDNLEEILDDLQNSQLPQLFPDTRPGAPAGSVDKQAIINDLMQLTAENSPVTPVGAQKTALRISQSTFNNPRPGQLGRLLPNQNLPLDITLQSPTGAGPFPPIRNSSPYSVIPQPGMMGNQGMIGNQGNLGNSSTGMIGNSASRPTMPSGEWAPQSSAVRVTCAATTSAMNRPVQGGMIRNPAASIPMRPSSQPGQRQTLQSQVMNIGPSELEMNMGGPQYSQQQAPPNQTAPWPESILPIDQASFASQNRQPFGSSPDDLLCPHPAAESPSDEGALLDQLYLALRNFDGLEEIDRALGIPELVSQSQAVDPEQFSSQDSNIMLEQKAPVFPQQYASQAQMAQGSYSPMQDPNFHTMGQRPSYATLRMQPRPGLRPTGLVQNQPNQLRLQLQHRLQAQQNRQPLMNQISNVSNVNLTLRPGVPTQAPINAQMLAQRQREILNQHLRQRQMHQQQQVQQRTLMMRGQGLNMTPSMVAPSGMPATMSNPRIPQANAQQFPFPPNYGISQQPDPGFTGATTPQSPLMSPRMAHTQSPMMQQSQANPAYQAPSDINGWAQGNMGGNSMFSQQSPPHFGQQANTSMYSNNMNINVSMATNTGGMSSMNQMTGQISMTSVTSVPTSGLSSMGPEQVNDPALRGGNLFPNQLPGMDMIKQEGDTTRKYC", "test": "Reporter gene transactivation assay", "assay_type": "cell-based", "settings": "Human embryonic kidney 293 cells transfected with rFXR, hRXRβ, hGrip1 and DR-4 or IR-1 luciferase reporter", "method": "(§1) Human embryonic kidney 293 cells were seeded into 48-well culture plates at 2×10^4 cells per well in a Dulbecco's modified Eagle's medium (DMEM) supplemented with 10% fetal bovine serum. After 24 hours, cells were transfected by a calcium phosphate coprecipitation method with 250 ng of the pGL3/DR-4-luc reporter gene which consists of three copies of AGGTCAagccAGGTCA (DR-4) or pGL3/IR-1-luc which consists of three copies of GGGTCAcTGACCC (IR-1) fused to nucleotides −56 to +109 of the human c-fos promoter in front of the firefly luciferase gene in the plasmid basic pGL3 (Promega, Madison, Wis.), 40 ng pSG5/hRXRβ, 40 ng pR5/rFXR,10 ng pSG5/hGrip1, 0.4 ng CMV/R-luc (transfection normalization reporter, Promega) and 250 ng carrier DNA per well. […] After another 12-24 hours, cells were washed with PBS and refed with DMEM supplemented with 4% delipidated fetal bovine serum. Chemicals dissolved in ethanol were added in duplicate to the medium so that the final concentration of alcohol was 0.2%. After 24-48 hours, cells were harvested and luciferase activity was measured with a commercial kit (Promega Dual luciferase II) on a Monolight luminometer (Becton Dickenson, Mountain View, Calif.). FXR dimerizes with RXR to form an FXR/RXR heterodimer, which binds to both DR-4 response elements and IR-1 response elements in a ligand-dependent manner and transactivates the reporter gene expression."}
{"smiles": "C[C@H](CCC(=O)NCCCl)[C@H]1CC[C@H]2[C@@H]3CC[C@@H]4CCCC[C@]4(C)[C@H]3CC[C@]12C", "note": "[N-(2-chloroethyl)-5β-cholanoic acid-24-amide]", "agonists of FXF (reporter gene transactivation, luciferase activity)": "potent agonists"}
{"smiles": "C[C@H](CCC(=O)NCCS(=O)(=O)O)[C@H]1CC[C@H]2[C@@H]3CC[C@@H]4CCCC[C@]4(C)[C@H]3CC[C@]12C", "note": "[N-sulfonylethyl-5β-cholanoic acid-24-amide]", "agonists of FXF (reporter gene transactivation, luciferase activity)": "potent agonists"}
{"smiles": "CC(CCC(=O)O)C1CCC2C3CC=C4C=CCCC4(C)C3CCC12C", "note": "(centres unmarked) [Δ^3,5-cholanoic acid, 4-(10,13-Dimethyl-2,7,8,9,10,11,12,13,14,15,16,17-dodecahydro-1H-cyclopenta[a]phenanthren-17-yl)-pentanoic acid]", "agonists of FXF (reporter gene transactivation, luciferase activity)": "potent agonists"}
{"smiles": "C[C@H](CCC(=O)N(C)CC(=O)O)[C@H]1CC[C@H]2[C@@H]3CC[C@@H]4CCCC[C@]4(C)[C@H]3CC[C@]12C", "note": "[cholamide, N-methyl-N-carboxymethyl-5β-cholanoic acid-24-amide]", "agonists of FXF (reporter gene transactivation, luciferase activity)": "potent agonists"}
{"smiles": "CNN(C)C(=O)CC[C@@H](C)[C@H]1CC[C@H]2[C@@H]3CC[C@@H]4CCCC[C@]4(C)[C@H]3CC[C@]12C", "note": "[N-methyl-N-methylamino-5β-cholanoic acid-24-amide]", "agonists of FXF (reporter gene transactivation, luciferase activity)": "potent agonists"}
{"smiles": "C[C@H](CCC(=O)NCC(F)(F)F)[C@H]1CC[C@H]2[C@@H]3CC[C@@H]4CCCC[C@]4(C)[C@H]3CC[C@]12C", "note": "[N-(2,2,2-trifluoroethyl)-5β-cholanoic acid-24-amide]", "agonists of FXF (reporter gene transactivation, luciferase activity)": "potent agonists"}
{"smiles": "CC(CCS(=O)(=O)O)C1CCC2C3CCC4CCCCC4(C)C3CCC12C", "note": "(centres unmarked) [cholanosulfonic acid, 3-(10,13-Dimethyl-hexadecahydro-cyclopenta[a]phenanthren-17-yl)-butane-1-sulfonic acid]", "agonists of FXF (reporter gene transactivation, luciferase activity)": "potent agonists"}
{"smiles": "C[C@H](CCC(=O)NCC(=O)O)[C@H]1CC[C@H]2[C@@H]3CC[C@@H]4CCCC[C@]4(C)[C@H]3CC[C@]12C", "note": "[N-carboxymethyl-5β-cholanoic acid-24-amide]", "agonists of FXF (reporter gene transactivation, luciferase activity)": "potent agonists"}
{"smiles": "C[C@H](CCC(=O)N(C)C)[C@H]1CC[C@H]2[C@@H]3CC[C@@H]4CCCC[C@]4(C)[C@H]3CC[C@]12C", "note": "[N,N-dimethyl-5β-cholanoic acid-24-amide]", "agonists of FXF (reporter gene transactivation, luciferase activity)": "potent agonists"}
{"smiles": "CCOC(=O)CNC(=O)CC[C@@H](C)[C@H]1CC[C@H]2[C@@H]3CC[C@@H]4CCCC[C@]4(C)[C@H]3CC[C@]12C", "note": "[N-ethoxycarbonylmethyl-5β-cholanoic acid-24-amide]", "agonists of FXF (reporter gene transactivation, luciferase activity)": "potent agonists"}
{"smiles": "CON(C)C(=O)CC[C@@H](C)[C@H]1CC[C@H]2[C@@H]3CC[C@@H]4CCCC[C@]4(C)[C@H]3CC[C@]12C", "note": "[N-methyl-N-methoxy-5β-cholanoic acid-24-amide]", "agonists of FXF (reporter gene transactivation, luciferase activity)": "potent agonists"}
{"smiles": "C[C@H](CCC(=O)NNC=O)[C@H]1CC[C@H]2[C@@H]3CC[C@@H]4CCCC[C@]4(C)[C@H]3CC[C@]12C", "note": "[N-formylamino-5β-cholanoic acid-24-amide]", "agonists of FXF (reporter gene transactivation, luciferase activity)": "potent agonists"}
{"smiles": "CNC(=O)CC[C@@H](C)[C@H]1CC[C@H]2[C@@H]3CC[C@@H]4CCCC[C@]4(C)[C@H]3CC[C@]12C", "note": "[N-methyl-5β-cholanoic acid-24-amide]", "agonists of FXF (reporter gene transactivation, luciferase activity)": "potent agonists"}
{"molecular_target": "T1, FXR", "test": "Reporter gene transactivation assay", "assay_type": "cell-based", "settings": "relative to GW4064", "method": "as §1", "units": {"higher efficacy than GW4064, a known non-steroidal FXR agonist": "times"}}
{"smiles": "C[C@H](CCC(=O)N(C)CC(=O)O)[C@H]1CC[C@H]2[C@@H]3CC[C@@H]4CCCC[C@]4(C)[C@H]3CC[C@]12C", "note": "[cholamide, N-methyl-N-carboxymethyl-5β-cholanoic acid-24-amide]", "higher efficacy than GW4064, a known non-steroidal FXR agonist": 200}
